{"source": "patent US12059393B2", "about": "“Compositions for topical treatment of radiation dermatitis” (Akos Biosciences, Inc, priority 2022, dated 2024)", "key": {"[1]": {"assay": "LDH cytotoxicity assay in 3D in vitro skin model", "format": "cell-based", "details": "no UV, topical 24 h", "method": "(§1) A 3D in vitro skin model containing epidermal keratinocytes and dermal fibroblasts was used. Some tissues were irradiated with 200 mJ UVB/cm^2. Test materials were applied topically for 24 hours (after UVB exposure) and an MTT assay was used to check the viability of cells. The following treatment groups were used: • olive oil (no CBD); • CBD in olive oil in concentrations of 30, 60, 120, and 250 mg/mL; • No treatment; and • Triton-X® as positive control.\n(§2) Cytotoxicity was assessed with a lactate dehydrogenase (LDH) assay using media collected from the wells of the tissues. Increased LDH activity is an indicator of damaged or dead cells.\n(§3) The results are provided in the following Table A, with the untreated group defining 0% cytotoxicity and Triton-X defining 100% cytotoxicity. Lower cytotoxicity is better. * indicates p≤0.05 and ** indicates p≤0.01 statistical significance after performing unpaired t-test."}, "[2]": {"system": "3D in vitro skin model containing epidermal keratinocytes and dermal fibroblasts", "assay": "LDH cytotoxicity assay in 3D in vitro skin model", "format": "cell-based", "details": "light or radiation study, UV (200 mJ UVB/cm^2), topical 24 h", "method": "as §1, §2, §3"}, "[3]": {"system": "3D in vitro skin model containing epidermal keratinocytes and dermal fibroblasts", "assay": "Gene expression changes (178 genes) in 3D in vitro skin model", "format": "cell-based", "details": "for Regulated genes (function): UV exposed tissues, baseline Group K", "method": "as §1\nNext, changes in gene expression for 178 genes were measured in tissues. Statistical significance was determined using unpaired t-test, P<0.05, N=4."}, "[4]": {"system": "acute radiation-induced dermatitis", "assay": "Skin redness scoring in mouse radiation dermatitis model", "format": "in vivo, Balb/c mice", "parameters": "key to Redness score (mean): visual redness score, scale 0 to 3 in 0.5 increments", "details": "for Redness score % Change CBD vs. Group 3: vs olive oil only; for Redness score % Change CBD vs. Group 2: vs radiation only", "method": "A study was performed on mice to determine the efficacy of topically-dosed CBD in an olive oil vehicle for the treatment of acute radiation-induced dermatitis. Three different CBD dosages were used— 30 mg/mL (3 wt %), 120 mg/mL (12 wt %), and 250 mg/mL (25 wt %).\n144 female Balb/c mice with an average starting body weight (±SEM) of 17.96±0.12 grams were randomized into six (6) groups of 24 animals each, as follows:\nThe control group (Group 1) was not irradiated. The animals in Groups 2-6 were anesthetized via a single intraperitoneal injection of xylazine and ketamine prior to being administered a single dose of 30 Grays (Gy) of radiation directed at a 2 cm×4 cm patch of shaved dorsal skin on Day 0. Radiation was generated by a 160 kVp (15-ma) X-ray source at a focal distance of 10 cm, hardened with a 0.35 mm Cu filtration system at a rate of approximately 3.2 Gy/minute.\nDosing for animals in Groups 3-6 began on Day 0 immediately after radiation. Treatments were administered topically (0.1 mL per animal) daily from Days 0-28.\nStarting on Day 8 and continuing every other day thereafter (Days 8-28), each animal was evaluated for skin redness and dermatitis, and photographed for subsequent blinded scoring of dermatitis at the completion of the study. Body weight was taken daily.\nSkin redness was scored visually by comparison to a photographic scale, and reported on a scale of 0 to 3 in 0.5 unit increments. The scale is described in the table below:\nData were evaluated using one-way ANOVA with Dunnett's multiple comparisons test to compare all groups to the vehicle control group using GraphPad Prism 8.4.3 (La Jolla, CA Duration of dermatitis data was evaluated using the Chi-square test to compare all groups to the vehicle-control group and radiation only group using SigmaPlot 11.0 (Systat Software, Inc.). Statistical significance was achieved when p<0.05."}, "[5]": {"system": "acute radiation-induced dermatitis", "assay": "Blinded clinical dermatitis scoring in mouse radiation dermatitis model", "format": "in vivo, Balb/c mice", "details": "150 mg/mL CBD"}}}
{"smiles": "C=C(C)[C@@H]1CCC(C)=C[C@H]1c1c(O)cc(CCCCC)cc1O", "note": "[CBD, 2-[(1R,6R)-6-Isopropenyl-3-methylcyclohex-2-en-1-yl]-5-pentylbenzene-1,3-diol]", "values": [{"measurement": "cytotoxicity at 24 h, 30 mg/mL", "setting": "[1]; 30 mg/mL CBD in olive oil, untreated=0%, Triton-X=100%", "result": 4, "unit": "%"}, {"measurement": "cytotoxicity at 24 h, 60 mg/mL", "setting": "[1]; 60 mg/mL CBD in olive oil", "result": 4, "unit": "%"}, {"measurement": "cytotoxicity at 24 h, 120 mg/mL", "setting": "[1]; 120 mg/mL CBD in olive oil", "result": 5, "unit": "%"}, {"measurement": "cytotoxicity at 24 h, 250 mg/mL", "setting": "[1]; 250 mg/mL CBD in olive oil", "result": 11, "unit": "%"}, {"measurement": "cytotoxicity at 30000 µg/mL", "setting": "[2]; 30 mg/mL CBD in olive oil", "result": 17, "unit": "%"}, {"measurement": "cytotoxicity at 60000 µg/mL", "setting": "[2]; 60 mg/mL CBD in olive oil", "result": 19, "unit": "%"}, {"measurement": "cytotoxicity at 120000 µg/mL", "setting": "[2]; 120 mg/mL CBD in olive oil", "result": 16, "unit": "%"}, {"measurement": "cytotoxicity at 250000 µg/mL", "setting": "[2]; 250 mg/mL CBD in olive oil", "result": 16, "unit": "%"}, {"measurement": "Regulated genes (function)", "setting": "[3]; 30 mg/mL CBD in olive oil (Group G)", "result": "associated with cell renewal, tissue remodeling, anti-apoptotic pathway, and extracellular matrix integrity"}, {"measurement": "Regulated genes (function)", "setting": "[3]; 120 mg/mL CBD in olive oil (Group I)", "result": "associated with antioxidant/stress response"}, {"measurement": "Genes with FC of 2 or greater", "setting": "[3]; CBD in olive oil 30-250 mg/mL (Groups B-E), healthy tissues, baseline Group A (olive oil)", "result": "four"}, {"measurement": "Redness score (mean)", "setting": "[4]; CBD-treated groups condensed (30, 120, 250 mg/mL), Day 8", "result": 0.81}, {"measurement": "Redness score (mean)", "setting": "[4]; CBD-treated groups condensed, Day 10", "result": 1.06}, {"measurement": "Redness score (mean)", "setting": "[4]; CBD-treated groups condensed, Day 12", "result": 1.07}, {"measurement": "Redness score (mean)", "setting": "[4]; CBD-treated groups condensed, Day 14", "result": 1.16}, {"measurement": "Redness score (mean)", "setting": "[4]; CBD-treated groups condensed, Day 16", "result": 1.43}, {"measurement": "Redness score (mean)", "setting": "[4]; CBD-treated groups condensed, Day 18", "result": 1.40}, {"measurement": "Redness score (mean)", "setting": "[4]; CBD-treated groups condensed, Day 20", "result": 1.43}, {"measurement": "Redness score (mean)", "setting": "[4]; CBD-treated groups condensed, Day 22", "result": 1.50}, {"measurement": "Redness score (mean)", "setting": "[4]; CBD-treated groups condensed, Day 24", "result": 1.18}, {"measurement": "Redness score (mean)", "setting": "[4]; CBD-treated groups condensed, Day 26", "result": 1.04}, {"measurement": "Redness score (mean)", "setting": "[4]; CBD-treated groups condensed, Day 28", "result": 0.89}, {"measurement": "Mean redness scores compared against Group 2 (radiation only)", "setting": "[4]; CBD-treated groups considered together, p<0.05", "result": "statistically significant reduction"}, {"measurement": "Redness scores compared to Group 2", "setting": "[4]; CBD-treated groups, after Day 14", "result": "consistently lower"}, {"measurement": "Redness scores compared to Group 3 (olive oil only)", "setting": "[4]; CBD-treated groups, all time points", "result": "consistently lower"}, {"measurement": "Redness score % Change CBD vs. Group 3", "setting": "[4]; Day 8", "result": "−16.13", "unit": "%"}, {"measurement": "Redness score % Change CBD vs. Group 3", "setting": "[4]; Day 10", "result": "−30.61", "unit": "%"}, {"measurement": "Redness score % Change CBD vs. Group 3", "setting": "[4]; Day 12", "result": "−32.68", "unit": "%"}, {"measurement": "Redness score % Change CBD vs. Group 3", "setting": "[4]; Day 14", "result": "−27.45", "unit": "%"}, {"measurement": "Redness score % Change CBD vs. Group 3", "setting": "[4]; Day 16", "result": "−29.93", "unit": "%"}, {"measurement": "Redness score % Change CBD vs. Group 3", "setting": "[4]; Day 18", "result": "−21.71", "unit": "%"}, {"measurement": "Redness score % Change CBD vs. Group 3", "setting": "[4]; Day 20", "result": "−23.70", "unit": "%"}, {"measurement": "Redness score % Change CBD vs. Group 3", "setting": "[4]; Day 22", "result": "−32.08", "unit": "%"}, {"measurement": "Redness score % Change CBD vs. Group 3", "setting": "[4]; Day 24", "result": "−25.44", "unit": "%"}, {"measurement": "Redness score % Change CBD vs. Group 3", "setting": "[4]; Day 26", "result": "−30.56", "unit": "%"}, {"measurement": "Redness score % Change CBD vs. Group 3", "setting": "[4]; Day 28", "result": "−42.34", "unit": "%"}, {"measurement": "Redness score % Change CBD vs. Group 2", "setting": "[4]; Day 8", "result": 87.50, "unit": "%"}, {"measurement": "Redness score % Change CBD vs. Group 2", "setting": "[4]; Day 12", "result": 3.83, "unit": "%"}, {"measurement": "Redness score % Change CBD vs. Group 2", "setting": "[4]; Day 14", "result": "−3.65", "unit": "%"}, {"measurement": "Redness score % Change CBD vs. Group 2", "setting": "[4]; Day 16", "result": "−21.32", "unit": "%"}, {"measurement": "Redness score % Change CBD vs. Group 2", "setting": "[4]; Day 18", "result": "−24.73", "unit": "%"}, {"measurement": "Redness score % Change CBD vs. Group 2", "setting": "[4]; Day 20", "result": "−25.07", "unit": "%"}, {"measurement": "Redness score % Change CBD vs. Group 2", "setting": "[4]; Day 22", "result": "−34.00", "unit": "%"}, {"measurement": "Redness score % Change CBD vs. Group 2", "setting": "[4]; Day 24", "result": "−42.28", "unit": "%"}, {"measurement": "Redness score % Change CBD vs. Group 2", "setting": "[4]; Day 26", "result": "−45.44", "unit": "%"}, {"measurement": "Redness score % Change CBD vs. Group 2", "setting": "[4]; Day 28", "result": "−45.68", "unit": "%"}, {"measurement": "% Days ≥2", "setting": "[5]", "result": 61.22, "unit": "%"}]}
